# From patent US20100168451A1, “PREPARATIVE METHOD OF DIHYDROCUCURBITACIN F-25-O-ACETATE AND THE USE THEREOF IN THE MANUFACTURE OF MEDICAMENTS FOR TREATING CANCERS” (priority 2007, published 2010)
# Like-named read-outs stand apart in the source and are kept apart here.
# Tests used:
# [1] = test system: HL60 human leukemia cell strain; assay: modified MTT in vitro screening, HL60; type: cell-based
# Text: (§1) 1. Screening research in vitro, employing modified MTT of anticancer substance activity. Cancer Cell Strain: [table]
# [2] = test system: A549 human lung cancer cell strain; assay: modified MTT in vitro screening, A549; type: cell-based; details: for IC50: A549
# Text: as §1
# [3] = test system: SGC-7901 human gastric cancer cell strain; assay: modified MTT in vitro screening, SGC-7901; type: cell-based
# Text: as §1
# [4] = test system: Bel-7402 human hepatic cancer cell strain; assay: modified MTT in vitro screening, Bel-7402; type: cell-based
# Text: as §1
# [5] = test system: SMMC-7721 human hepatic cancer cell strain; assay: modified MTT in vitro screening, SMMC-7721; type: cell-based
# Text: as §1
# [6] = test system: HEP-2 human laryngeal cancer cell strain; assay: modified MTT in vitro screening, HEP-2; type: cell-based
# Text: as §1
# [7] = test system: GLC-15 human lung cancer cell strain; assay: modified MTT in vitro screening, GLC-15; type: cell-based
# Text: as §1
# [8] = test system: PC-3 human prostate cancer cell strain; assay: modified MTT in vitro screening, PC-3; type: cell-based
# Text: as §1
# mouse Lewis lung cancer = assay: curative effect on mouse Lewis lung cancer in vivo
# Procedure: (§2) After inoculating Kunming murine for H22 hepatic cancer and murine Lewis lung cancer, three kinds of preparation, i.e., suspension, emulsion, and lyophilized preparation, are administrated in three different ways of administration comprising gastric perfusion, intraperitoneal injection and intravenous injection, and the administration dose is high, middle and low respectively. Then the curative effect is compared with positive control group and the tumour inhibition efficiency is calculated, and the results are shown as follows: […]
# [9] = animal body weight, Lewis lung cancer mice; type: in vivo, mouse
# Text: After inoculating Kunming murine for H22 hepatic cancer and murine Lewis lung cancer, three kinds of preparation, i.e., suspension, emulsion, and lyophilized preparation, are administrated in three different ways of administration comprising gastric perfusion, intraperitoneal injection and intravenous injection, and the administration dose is high, middle and low respectively.
# mouse H22 liver cancer = assay: curative effect on mouse H22 liver cancer in vivo
# Procedure: as §2
# [10] = mouse, in vivo
# Procedure: as §2
# [11] = Table VI, 7 mg/kg/d Ipx2, the first, third days
# [12] = Homo sapiens, read-out: Ic 50 for the growth of tumour cells
# [13] = emulsion, intravenous, 5 mg/kg/d ivx10qd
# [14] = emulsion, intravenous, 10 mg/kg/d ivx10qd
# [15] = emulsion, intravenous, 15 mg/kg/d ivx10qd
# [16] = lyophilized preparation, intravenous, 5 mg/kg/d ivx10qd
# [17] = lyophilized preparation, intravenous, 10 mg/kg/d ivx10qd
# [18] = lyophilized preparation, intravenous, 15 mg/kg/d ivx10qd
# [19] = suspension, gastric perfusion, 30 mg/kg/d igx10qd
# [20] = suspension, gastric perfusion, 60 mg/kg/d igx10qd
# [21] = suspension, gastric perfusion, 90 mg/kg/d igx10qd
# [22] = suspension, intraperitoneal administration (igx10qd), 30 mg/kg/d
# [23] = suspension, intraperitoneal administration (igx10qd), 60 mg/kg/d
# [24] = suspension, intraperitoneal administration (igx10qd), 90 mg/kg/d
# [25] = mouse, in vivo, iv, 5 mg/kg/day
# [26] = mouse, in vivo, iv, 10 mg/kg/day
# [27] = mouse, in vivo, iv, 15 mg/kg/day
structure (smiles),measurement,setting,value
"N.N.[Cl][Pt][Cl] [DDP(Cisplatin), Cisplatin, reference compound]",Ic 50 for the growth of tumour cells,[1],0.695 µg/mL
same,Ic 50 for growth of the human lung cancer cells,[2]; human lung cancer cells,1.6 µg/mL
same,Ic 50 for the growth of tumour cells,[3],0.89 µg/mL
same,Ic 50 for the growth of tumour cells,[4],2.31 µg/mL
same,Ic 50 for the growth of tumour cells,[5],0.21 µg/mL
same,Ic 50 for the growth of tumour cells,[6]; HEP-2,0.3 µg/mL
same,Ic 50 for the growth of tumour cells,[7],1.72 µg/mL
same,Ic 50 for the growth of tumour cells,[8],1.85 µg/mL
same,Inhibition efficiency,mouse Lewis lung cancer; [11],92.98
same,Tumour weight (g) X ± SD,mouse Lewis lung cancer; [11],0.172 ± 0.06 g
same,Animal body weight (g) end,"[9]; Table VI, 7 mg/kg/d Ipx2, the first, third days, end",18.1 g
same,Animal body weight (g) Start,"[9]; Table VI, 7 mg/kg/d Ipx2, the first, third days, start",18.4 g
"CC(=O)OC(C)(C)CCC(=O)[C@](C)(O)[C@H]1[C@H](O)C[C@@]2(C)[C@@H]3CC=C4[C@@H](C[C@H](O)[C@@H](O)C4(C)C)[C@]3(C)C(=O)C[C@]12C [Curcurbitacin IIa, dihydrocucurbitacin F-25-O-acetate]",IC50,"[1]; Homo sapiens, HL-60, read-out: Ic 50 for the growth of tumour cells",43.2 µg/mL
same,IC50,"[2]; human lung cancer cells, read-out: Ic 50 for growth of the human lung cancer cells",1.5 µg/mL
same,IC50,[2]; [12],1.5 µg/mL
same,IC50,[3]; [12],8.71 µg/mL
same,IC50,[4]; [12],> 100 µg/mL
same,IC50,[5]; [12],22.3 µg/mL
same,IC50,"[6]; Homo sapiens, HEp-2, read-out: Ic 50 for the growth of tumour cells",15.8 µg/mL
same,IC50,[7]; [12],14.6 µg/mL
same,IC50,[8]; [12],10.1 µg/mL
same,Inhibition efficiency,mouse H22 liver cancer; [13],32.38
same,Tumour weight (g) X ± SD,mouse H22 liver cancer; [13],2.13 ± 0.20 g
same,Inhibition efficiency,mouse H22 liver cancer; [14],44.12
same,Tumour weight (g) X ± SD,mouse H22 liver cancer; [14],1.76 ± 0.08 g
same,Inhibition efficiency,mouse H22 liver cancer; [15],55.02
same,Tumour weight (g) X ± SD,mouse H22 liver cancer; [15],1.48 ± 0.11 g
same,Inhibition efficiency,mouse H22 liver cancer; [16],31.1
same,Tumour weight (g) X ± SD,mouse H22 liver cancer; [16],2.06 ± 0.18 g
same,Inhibition efficiency,mouse H22 liver cancer; [17],39.13
same,Tumour weight (g) X ± SD,mouse H22 liver cancer; [17],1.82 ± 0.19 g
same,Inhibition efficiency,mouse H22 liver cancer; [18],46.15
same,Tumour weight (g) X ± SD,mouse H22 liver cancer; [18],1.61 ± 0.18 g
same,Inhibition efficiency,mouse H22 liver cancer; [19],27.13
same,Tumour weight (g) X ± SD,mouse H22 liver cancer; [19],2.31 ± 0.21 g
same,Inhibition efficiency,mouse H22 liver cancer; [20],32.09
same,Tumour weight (g) X ± SD,mouse H22 liver cancer; [20],2.14 ± 0.20 g
same,Inhibition efficiency,mouse H22 liver cancer; [21],38.17
same,Tumour weight (g) X ± SD,mouse H22 liver cancer; [21],1.96 ± 0.16 g
same,Inhibition efficiency,mouse H22 liver cancer; [22],36.07
same,Tumour weight (g) X ± SD,mouse H22 liver cancer; [22],1.95 ± 0.12 g
same,Inhibition efficiency,mouse H22 liver cancer; [23],51.05
same,Tumour weight (g) X ± SD,mouse H22 liver cancer; [23],1.49 ± 0.12 g
same,Inhibition efficiency,mouse H22 liver cancer; [24],57.05
same,Tumour weight (g) X ± SD,mouse H22 liver cancer; [24],1.31 ± 0.12 g
same,Inhibition efficiency,mouse Lewis lung cancer; [13],40.76
same,Tumour weight (g) X ± SD,mouse Lewis lung cancer; [13],1.69 ± 0.11 g
same,Inhibition efficiency,mouse Lewis lung cancer; [14],47.37
same,Tumour weight (g) X ± SD,mouse Lewis lung cancer; [14],1.50 ± 0.14 g
same,Inhibition efficiency,mouse Lewis lung cancer; [15],59.30
same,Tumour weight (g) X ± SD,mouse Lewis lung cancer; [15],1.16 ± 0.16 g
same,Tumour weight (g) X ± SD,"mouse Lewis lung cancer; lyophilized preparation, 5 mg/kg/d ivx10qd",1.56 ± 0.14 g
same,Tumour weight (g) X ± SD,"mouse Lewis lung cancer; lyophilized preparation, 10 mg/kg/d ivx10qd",1.34 ± 0.18 g
same,Tumour weight (g) X ± SD,"mouse Lewis lung cancer; lyophilized preparation, 15 mg/kg/d ivx10qd",1.20 ± 0.20 g
same,Inhibition efficiency,"mouse Lewis lung cancer; lyophilized preparation, hypodermic inoculation, 5 mg/kg/d ivx10qd",36.33
same,Inhibition efficiency,"mouse Lewis lung cancer; lyophilized preparation, hypodermic inoculation, 10 mg/kg/d ivx10qd",45.31
same,Inhibition efficiency,"mouse Lewis lung cancer; lyophilized preparation, hypodermic inoculation, 15 mg/kg/d ivx10qd",51.20
same,Animal body weight (g) Start,[10]; 30 mg/kg/day,19.0 g
same,Animal body weight (g) end,[10]; 30 mg/kg/day,26.0 g
same,Animal body weight (g) Start,[10]; 60 mg/kg/day,19.3 g
same,Animal body weight (g) end,[10]; 60 mg/kg/day,26.3 g
same,Animal body weight (g) Start,[10]; 90 mg/kg/day,19.1 g
same,Animal body weight (g) end,[10]; 90 mg/kg/day,25.7 g
same,Animal body weight (g) end,"[10]; iv, 10 mg/kg/day",25.9 g
same,Animal body weight (g) Start,"[9]; mouse, in vivo, 5 mg/kg/day",18.1 g
same,Animal body weight (g) end,"[9]; mouse, in vivo, 5 mg/kg/day",20.5 g
same,Animal body weight (g) Start,"[9]; mouse, in vivo, 10 mg/kg/day",17.7 g
same,Animal body weight (g) end,"[9]; mouse, in vivo, 10 mg/kg/day",21.1 g
same,Animal body weight (g) Start,"[9]; mouse, in vivo, 15 mg/kg/day",18.0 g
same,Animal body weight (g) end,"[9]; mouse, in vivo, 15 mg/kg/day",20.7 g
same,Animal body weight (g) Start,[9]; [25],19.3 g
same,Animal body weight (g) end,[9]; [25],22.4 g
same,Animal body weight (g) Start,[9]; [26],19.1 g
same,Animal body weight (g) end,[9]; [26],22.9 g
same,Animal body weight (g) Start,[9]; [27],19.5 g
same,Animal body weight (g) end,[9]; [27],22.1 g
